Experimental data: patent US10501413B2, “Inhibitors of the Notch transcriptional activation complex and methods for use of the same” (UNIVERSITY OF MIAMI, priority 2015, dated 2019)

Tests used:
CSL = CSL (Homo sapiens, UniProt Q06330); test: Surface plasmon resonance binding to CSL; details: SPR, equilibrium response fitted to 1:1 binding model
Experimental: (§1) The inhibitors described herein were subjected to surface plasmon resonance (“SPR”) to determine their binding constants to the NICD and CSL components of the NTC. In particular, the target protein (NICD1) was immobilized on the dextran surface of the SPR sensor chip. Through a microflow system, a solution with the inhibitor was injected over the immobilized protein layer. The inhibitor bound to the immobilized protein, which led to an increase in SPR signal, indicating association of the ligand to the target protein. After 45 seconds, buffer solution was injected on the microfluidics that dissociated the bound complex between the ligand and the inhibitor. As the inhibitor dissociated from the ligand, a decrease in SPR signal was observed. The equilibrium dissociation constant KD was determined by plotting the equilibrium response (Req) as a function of the concentration of the ligand, and fitting the data to a 1:1 binding model. The results are listed in […].

NICD1 = biological target: T1, NICD1 (Homo sapiens, UniProt P46531); test: Surface plasmon resonance binding to immobilized NICD; details: SPR, equilibrium response fitted to 1:1 binding model
T1 construct: the intracellular domain of Notch (“NICD”)
T1 sequence (P46531 1754-2555 limits assumed): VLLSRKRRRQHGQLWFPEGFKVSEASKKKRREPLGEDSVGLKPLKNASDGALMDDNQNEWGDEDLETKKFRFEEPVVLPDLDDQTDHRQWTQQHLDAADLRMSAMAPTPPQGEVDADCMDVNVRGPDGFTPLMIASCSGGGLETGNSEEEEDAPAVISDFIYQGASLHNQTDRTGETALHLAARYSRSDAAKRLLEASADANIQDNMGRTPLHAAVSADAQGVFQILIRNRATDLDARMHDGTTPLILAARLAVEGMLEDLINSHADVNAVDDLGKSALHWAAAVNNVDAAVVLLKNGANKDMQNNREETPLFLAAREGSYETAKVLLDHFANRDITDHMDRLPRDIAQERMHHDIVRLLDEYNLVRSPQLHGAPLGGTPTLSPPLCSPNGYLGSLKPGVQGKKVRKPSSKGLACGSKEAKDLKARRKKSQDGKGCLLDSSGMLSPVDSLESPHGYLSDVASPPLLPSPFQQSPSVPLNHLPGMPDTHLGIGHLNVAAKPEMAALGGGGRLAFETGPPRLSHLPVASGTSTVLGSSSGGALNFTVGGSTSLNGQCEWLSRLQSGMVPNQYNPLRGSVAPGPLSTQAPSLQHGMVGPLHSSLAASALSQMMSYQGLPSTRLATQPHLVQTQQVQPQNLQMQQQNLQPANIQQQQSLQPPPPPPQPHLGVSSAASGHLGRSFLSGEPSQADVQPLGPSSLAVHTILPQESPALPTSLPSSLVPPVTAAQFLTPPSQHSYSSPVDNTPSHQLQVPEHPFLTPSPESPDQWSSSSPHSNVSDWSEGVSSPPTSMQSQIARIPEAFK
Experimental: as §1

[1] = biological target: T2, Notch transcriptional activation complex (CSL, Notch1, MAML1 on DNA) (Homo sapiens, UniProt P46531+Q06330); test: Notch complex assembly assay (ALPHASCREEN); format: biochemical
T2 construct: the intracellular domain of Notch (“NICD”); made in house; host or cells: SF21 insect cells (baculovirus)
T2 sequence (P46531 1754-2555 limits assumed): as above
T2 sequence (Q06330 whole entry, the tested form may be a part): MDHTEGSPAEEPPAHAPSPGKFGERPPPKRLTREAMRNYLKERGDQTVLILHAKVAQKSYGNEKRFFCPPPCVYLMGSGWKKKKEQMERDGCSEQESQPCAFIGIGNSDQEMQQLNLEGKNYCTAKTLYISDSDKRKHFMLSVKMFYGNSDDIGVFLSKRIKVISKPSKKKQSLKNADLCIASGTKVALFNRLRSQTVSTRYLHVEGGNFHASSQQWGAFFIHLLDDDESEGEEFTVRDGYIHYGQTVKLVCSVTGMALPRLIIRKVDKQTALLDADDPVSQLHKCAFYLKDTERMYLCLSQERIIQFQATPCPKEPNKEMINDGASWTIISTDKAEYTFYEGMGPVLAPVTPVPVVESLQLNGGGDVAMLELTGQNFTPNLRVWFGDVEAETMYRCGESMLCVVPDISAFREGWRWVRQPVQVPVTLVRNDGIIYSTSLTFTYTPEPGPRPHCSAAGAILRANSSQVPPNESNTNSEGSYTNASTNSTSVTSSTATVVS
Description: An in vitro assay was developed to monitor the assembly of the Notch transcriptional complex (“NTC”) on DNA. The NTC, which includes the Notch, Mastermind (“MAML1”), and CSL proteins, binds to a specific DNA sequence in a CSL-dependent manner. For the assay, baculovirus produced CSL, Notch, and MAML1 were mixed together with a biotinylated DNA oligomer containing the CSL target sequence. Assembly of the NTC on DNA was then monitored with the proximity-based ALPHASCREEN (Perkin Elmer) using streptavidin and protein A beads (FIGS. 1A and 1B). A signal results when MAML1 is recruited to CSL bound DNA.
All recombinant proteins were expressed using baculovirus expression vectors in SF21 cells and purified. Unless otherwise stated, all assays contained 125 fmol of double stranded oligonucleotide, CSL, Notch1 and MAML1 proteins. Reactions were carried out in Tris-buffered saline with 0.1% Tween (“TBS-T”) buffer containing 0.2% bovine serum albumin (“BSA”) and 100 ug/mL salmon sperm DNA. Briefly, the Notch complex was assembled on a biotinylated double stranded (“DS”) oligonucleotide harboring one CSL binding site (5′-[…]-3′). Complex assembly was quantitated using ALPHASCREEN technology (Perkin Elmer). Proteins in the complexes were detected using specific antibodies to either MAML1 (Cell signaling, D3K7B), Notch1 (Abcam, 52627) or CSL (anti-His, Abcam 18184). Streptavidin conjugated acceptor beads (Perkin Elmer, 6760002) were used to bind the DS oligonucleotide, and Protein-A conjugated donor beads (Perkin Elmer, 6760137) were used to detect antibody-coated proteins. For screening compounds, Notch transcriptional activation complex (“NTC”) components were added to wells that already contained the inhibitor to be assayed and allowed to incubate for 30 minutes. The ALPHASCREEN plate (Perkin Elmer, 6008350) was then read on an Envision Plate reader (Perkin Elmer) as specified by the manufacturer.
Determination of Equilibrium Dissociation Constants (KD) and Half Maximal Inhibitory Concentrations (IC50)

[2] = test system: Notch target gene transcription; test: RT-qPCR of Notch target genes in cancer cell lines; format: cell-based, human
Experimental: The effect of inhibitor treatment on Notch-target gene transcription also was investigated (FIGS. 2C and 2D). […] As proof of specificity, transcription of the housekeeping gene, HPRT, was unaltered in treated cells. To test the effects of Notch inhibition on proliferation, a colony formation assay was performed.
To extend the analysis of tumor cell growth inhibition, several commonly used cancer cell lines were selected to test for sensitivity to Inhibitor No. 1-134-83 (FIGS. 3A and 3B). […] In this analysis, sensitivity to DAPT is taken to indicate specific inhibition of Notch activity. […] Cells that are refractory to DAPT were equally resistant to Inhibitor No. 1-134-83.
RT-PCR analysis was performed using TaqMan probes according to manufacturer's instructions. In particular, 80 ng of RNA equivalent was used per reaction. Gene expression was normalized to the TATA-binding protein (“TBP”) gene. As a control, hypoxanthine phosphoribosyltransferase 1 (“HPRT”) gene expression was also monitored.

[3] = test system: esophageal adenocarcinoma PDX tumors; test: Esophageal adenocarcinoma patient-derived xenograft (PDX); format: in vivo, mouse
Experimental: The effect of the inhibitors of the disclosure on the growth of an established tumor also was investigated using two independent esophageal adenocarcinoma patient-derived xenograft (“PDX”) models. Tumors were established in NSG mice to the size of 250 mm^3 prior to the initiation of treatment. Mice were dosed daily via intraperitoneal (“IP”) injection with either Inhibitor No. 1-134-83 (15 mg/kg) or DAPT (20 mg/kg), and compared to DMSO vehicle control. […] Following 24 days of treatment, tumors were harvested and Notch-target gene transcription was evaluated. […] (FIG. 4) Six-week-old NOD-SCID gamma (“NSG”) mice were purchased from Jackson Laboratories and CD-1 Nude mice were purchased from Charles River Laboratories. For the cell line based xenografts assay, 5×10^6 OE19 cells in 200 μl serum-free culture medium were injected subcutaneously per mouse. The mice in the treatment group were injected with 15 mg/kg of Inhibitor No. 1-134-83 daily, and the mice in the control group were injected with the same volume of vehicle (DMSO). Subcutaneous tumor growth was measured once every 4 days using calipers along with body weight. The experiment was discontinued on day 28. PDX cancer models were established, as described in Zhang et al, Establishment of Patient-Derived Xenograft (PDX) Models of Human Breast Cancer, Current Protocols in Mouse Biology, 3:21-29 (2013), in NSG mice. Briefly, 10 mm^3 pieces of primary EAC29 PDX tumor were transplanted subcutaneously into the flanks of NSG mice using a 13G telescopic needle. When the tumors reached 200 mm^3, the mice were split into two uniform groups for treatment. Compound 1-134-83 (15 mg/kg) and vehicle were administered daily by inraperitoneal (“IP”) injection for 24 days. Tumor growth was monitored every 4 days and tumor volume was measured by the formula: Volume=(S×S×L)/2, where S and L are the short and long dimensions. The xenograft tumors were harvested, weighed and samples were subjected to histological examination and by qPCR.

Sequence of CSL (Q06330 whole entry): as the sequence (Q06330 whole entry, the tested form may be a part) above

- Kd (CSL): 8 ± 2 µM
- Kd (NICD1): 11 ± 3 µM
- IC50 [1]: 26 µM
SMILES: CCOC(=O)COc1ccc(/C=C2\SC(=S)NC2=O)cc1OC [1-134-83]
- Notch target gene transcription ([2]; OE33 and 786-0 cells, qPCR): dose-dependent decrease
- transcription of control gene HPRT ([2]; OE33 and 786-0 cells, qPCR): unaltered
- Notch target gene transcription ([2]; insensitive cancer cell lines of the panel, 48 hrs): do not show a statistically significant reduction
- Notch target gene transcription ([2]; sensitive cancer cell lines of the panel, 48 hrs, DAPT 10, 1-134-83 15 and 25 μM): significantly reduced
- weight loss or visible signs of stress ([3]; NSG mice, 15 mg/kg daily IP): without any significant weight loss or other visible signs of stress
- growth of established tumor ([3]; NSG mice, two PDX models, daily IP, 1-134-83 15 mg/kg, DAPT 20 mg/kg): significantly stunted growth
- decrease in tumor volume by the experimental endpoint ([3]; PDX tumor, versus vehicle): three-fold
- transcription of control gene (TBP2) in tumors ([3]; treated PDX tumors, qPCR): unaffected
- level of Notch target genes (Hes1, HeyL, Notch3) in tumors ([3]; tumors harvested after 24 days of treatment, qPCR): dramatically reduced
